Test results from US20040127492A1 (Pharmacia Corporation, priority 2002, published 2004).
Where two headings read alike, the source gives them in different places. One block for each compound: values may come before it.

Key:
[1] = biological target: MK-3 (Homo sapiens, UniProt Q16644); assay: MK-3 inhibition IC50 (similar method to MK-2, with appropriate modifications); type: biochemical
Description: In practice, the selectivity of a cyclic pyrazole MK-2 inhibitor varies depending upon the condition under which the test is performed and on the inhibitors being tested. However, for the purposes of this specification, the selectivity of a cyclic pyrazole MK-2 inhibitor inhibitor can be measured as a ratio of the in vitro or in vivo IC50 value for inhibition of MK-3, divided by the IC50 value for inhibition of MK-2 (IC50 MK-3/IC50 MK-2). […] The MK-2 or MK-3 inhibiting activity of any of the compounds described herein can be determined by any one of several methods that are well known to those having skill in the art of enzyme activity testing. […] A similar method, with appropriate modifications, Can be used to measure MK-3 inhibitory activity. In addition, the efficacy of one of the present MK-2 inhibiting compounds in therapeutic applications can be determined by testing for inhibition of TNFα production in cell culture and in animal model assays.

[2] = biological target: MAPKAPK2 (MK-2) (Homo sapiens, UniProt P49137); assay: Determination of MK-2 IC50 (HSP-peptide phosphorylation, anion exchange resin capture assay); type: biochemical
Sequence of MAPKAPK2 (MK-2) (P49137 whole entry, species assumed): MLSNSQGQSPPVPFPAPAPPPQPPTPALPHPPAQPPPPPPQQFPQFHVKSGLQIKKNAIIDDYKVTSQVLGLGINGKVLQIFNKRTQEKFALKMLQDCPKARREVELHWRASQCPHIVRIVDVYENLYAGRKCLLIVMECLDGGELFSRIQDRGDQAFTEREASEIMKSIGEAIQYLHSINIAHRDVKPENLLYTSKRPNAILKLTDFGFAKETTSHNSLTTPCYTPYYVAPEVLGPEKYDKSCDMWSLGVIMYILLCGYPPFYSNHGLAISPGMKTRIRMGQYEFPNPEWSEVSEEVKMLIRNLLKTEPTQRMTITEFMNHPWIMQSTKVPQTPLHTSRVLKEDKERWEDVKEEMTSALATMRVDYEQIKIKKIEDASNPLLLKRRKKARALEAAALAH
Description: Determination of MK-2 IC50:
Recombinant MAPKAPK2 was phosphorylated at a concentration of 42-78 μM by incubation with 0.23 μM of active p38α in 50 mM HEPES, 0.1 mM EDTA, 10 mM magnesium acetate, and 0.25 mM ATP, pH 7.5 for one hour at 30° C.
The phosphorylation of HSP-peptide ([…]) by MAPKAPK2 was measured using an anion exchange resin capture assay method. The reaction was carried out in 50 mM β-glycerolphosphate, 0.04% BSA, 10 mM magnesium acetate, 2% DMSO and 0.8 mM dithiotheritol, pH 7.5 in the presence of the HSP-peptide with 0.2 μCi [γ^33P]ATP and 0.03 mM ATP. The reaction was initiated by the addition of 15 nM MAPKAPK2 and was allowed to incubate at 30° C. for 30 min. The reaction was terminated and [γ^33P]ATP was removed from solution by the addition of 150 μl of AG 1×8 ion exchange resin in 900 mM sodium formate pH 3.0. A 50 μl aliquot of head volume was removed from the quenched reaction mixture and added to a 96-well plate, 150 μl of Microscint-40 (Packard) was added and the amount of phosphorylated-peptide was determined. Allow the Microscint to sit in the plates for 60 minutes prior to counting.
Compounds are evaluated as potential inhibitors of the MK-2 kinase by measuring their effects on MK-2 phosphorylation of the peptide substrate. Compounds may be screened initially at two concentrations prior to determination of IC50 values. Screening results are expressed as percent inhibition at the concentrations of compound tested. For IC50 value determinations, Compounds are tested at six concentrations in ten-fold serial dilutions with each concentration tested in triplicate. Results are expressed as IC50 values in micromolar. The assay is performed at a final concentration of 2% DMSO.

[3] = Table 2, pyrazolylpyrazole MK-2 inhibitors, read-out: MK-3 Avg. IC50
[4] = Table 2, pyrazolylpyrazole MK-2 inhibitors, read-out: MK-2 Avg. IC50
[5] = Table 1, phenoxypyrazole MK-2 inhibitors, read-out: MK-3 Avg. IC50
[6] = Table 1, phenoxypyrazole MK-2 inhibitors, read-out: MK-2 Avg, IC50
[7] = Table 4, pyrimidylpyrazole MK-2 inhibitors, read-out: NK-3 Avg. IC50
[8] = Table 4, pyrimidylpyrazole MK-2 inhibitors, read-out: MK-2 Avg. IC50
[9] = Table 5, other cyclic pyrazole MK-2 inhibiting compounds, read-out: MK-3 Avg. IC50
[10] = Table 5, other cyclic pyrazole MK-2 inhibiting compounds, read-out: MK-2 Avg. IC50

Sequence of MK-3 (Q16644 whole entry, species assumed): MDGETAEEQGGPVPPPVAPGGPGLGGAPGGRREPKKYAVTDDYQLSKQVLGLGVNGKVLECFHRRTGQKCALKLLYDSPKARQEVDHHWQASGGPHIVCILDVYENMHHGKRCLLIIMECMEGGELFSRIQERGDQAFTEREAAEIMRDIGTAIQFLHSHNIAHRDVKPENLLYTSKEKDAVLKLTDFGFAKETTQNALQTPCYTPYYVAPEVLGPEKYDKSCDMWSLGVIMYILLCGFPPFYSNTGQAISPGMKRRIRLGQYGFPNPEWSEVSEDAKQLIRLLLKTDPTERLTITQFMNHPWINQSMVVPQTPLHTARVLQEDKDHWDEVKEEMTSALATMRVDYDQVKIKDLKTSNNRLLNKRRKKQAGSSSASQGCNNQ

- IC50 [1, 3]: 47000 nM
- IC50 [2, 4]: 1060 nM
Structure (SMILES): CSc1n[nH]c2c1-c1nn(CCCN)c(C(=O)O)c1CC2 [Example 1]

- IC50 [1, 5]: 115000 nM
- IC50 [2, 6]: 823 nM
Structure (SMILES): NCCCn1nc2c(c1C(=O)O)CCc1cc(O)c(-c3cccc([N+](=O)[O-])c3)cc1-2 [Example 1]

- IC50 ([1]; read-out: MK-3 Avg. IC50): 35.4 nM
- IC50 ([2]; read-out: MK-2 Avg. IC50): 9.46 nM
Structure (SMILES): NCCCn1nc2c(c1C(=O)O)CCc1cnc(-c3cnc4ccccc4c3)cc1-2 [Example 1]

- IC50 [1, 7]: 1930 nM
- IC50 [2, 8]: 76.1 nM
Structure (SMILES): NCCCn1nc2c(c1C(=O)O)CCc1cnc(-c3cnc4ccccc4c3)nc1-2 [Example 1]

- IC50 [1, 9]: 3620 nM
- IC50 [2, 10]: 21.1 nM
Structure (SMILES): O=C1NCCn2nc3c(c21)CCc1cnc(/C=C/c2cccc(O)c2)cc1-3 [Example 1]

- IC50 [1, 3]: 35300 nM
- IC50 [2, 4]: 2170 nM
Structure (SMILES): NCCCn1nc2c(c1C(=O)O)CCc1[nH]ncc1-2 [Example 2]

- IC50 [1, 7]: 4610 nM
- IC50 [2, 8]: 295 nM
Structure (SMILES): NCCCn1nc2c(c1C(=O)O)CCc1cnc(-c3ccc4c(c3)OCO4)nc1-2 [Example 2]

- IC50 ([1]; read-out: MK-3 Avg. IC50): 142 nM
- IC50 ([2]; read-out: MK-2 Avg. IC50): 18 nM
Structure (SMILES): NCCCn1nc2c(c1C(=O)O)CCc1cnc(-c3cccc([N+](=O)[O-])c3)cc1-2 [Example 2]

- IC50 [1, 5]: 40900 nM
- IC50 [2, 6]: 845 nM
Structure (SMILES): NCCn1nc2c(c1C(=O)O)CCc1cc(O)c(-c3cccc([N+](=O)[O-])c3)cc1-2 [Example 2]

- IC50 ([1]; read-out: MK-3 Avg. IC50): 361 nM
- IC50 ([2]; read-out: MK-2 Avg. IC50): 18.9 nM
Structure (SMILES): NCCCn1nc2c(c1C(=O)O)CCc1cnc(-c3ccc(O)cc3)cc1-2 [Example 3]

- IC50 [1, 7]: 10800 nM
- IC50 [2, 8]: 406 nM
Structure (SMILES): NCCCn1nc2c(c1C(=O)O)CCc1cnc(-c3ccccc3)nc1-2 [Example 3]

- IC50 [1, 3]: 20800 nM
- IC50 [2, 4]: 2230 nM
Structure (SMILES): O=C(O)c1c2c(nn1CCCNCCc1ccc(Br)cc1)-c1cn[nH]c1CC2 [Example 3]

- IC50 [1, 5]: > 200000 nM
- IC50 [2, 6]: 1480 nM
Structure (SMILES): O=C1NCCCn2nc3c(c21)CCc1cc(O)c(-c2cccc([N+](=O)[O-])c2)cc1-3 [Example 3]

- IC50 [1, 5]: 37900 nM
- IC50 [2, 6]: 2090 nM
Structure (SMILES): NCCCn1nc2c(c1C(=O)O)CCc1cc(O)ccc1-2 [Example 4]

- IC50 ([1]; read-out: MK-3 Avg. IC50): 550 nM
- IC50 ([2]; read-out: MK-2 Avg. IC50): 19.4 nM
Structure (SMILES): NCCCn1nc2c(c1C(=O)O)CCc1cnc(-c3cccc(O)c3)cc1-2 [Example 4]

- IC50 [1, 3]: 63300 nM
- IC50 [2, 4]: 2430 nM
Structure (SMILES): NCCn1nc2c(c1C(=O)O)CCc1[nH]ncc1-2 [Example 4]

- IC50 [1, 9]: > 20000 nM
- IC50 [2, 10]: 223 nM
Structure (SMILES): O=C1NCCn2nc3c(c21)CCc1cnc(/C=C/c2ccc4c(c2)OCO4)cc1-3 [Example 4]

- IC50 [1, 3]: 41400 nM
- IC50 [2, 4]: 2840 nM
Structure (SMILES): C=CCSc1n[nH]c2c1-c1nn(CCCN)c(C(=O)O)c1CC2 [Example 5]

- IC50 [1, 9]: 11800 nM
- IC50 [2, 10]: 328 nM
Structure (SMILES): COc1cccc(/C=C/c2cc3c(cn2)CCc2c-3nn3c2C(=O)NCC3)c1 [Example 5]

- IC50 ([1]; read-out: MK-3 Avg. IC50): 69.8 nM
- IC50 ([2]; read-out: MK-2 Avg. IC50): 23 nM
Structure (SMILES): NCCCn1nc2c(c1C(=O)O)CCc1cnc(-c3ccc4ccccc4c3)cc1-2 [Example 5]

- IC50 [1, 5]: > 200000 nM
- IC50 [2, 6]: 2140 nM
Structure (SMILES): NCCn1nc2c(c1C(=O)O)CCc1cc(O)c(Br)cc1-2 [Example 5]

- IC50 [1, 7]: 168000 nM
- IC50 [2, 8]: 1580 nM
Structure (SMILES): O=C1NCCCn2nc3c(c21)CCc1cnc(-c2cccnc2)nc1-3 [Example 5]

- IC50 [1, 3]: 22100 nM
- IC50 [2, 4]: 2890 nM
Structure (SMILES): NCCCn1nc2c(c1C(=O)O)CCc1[nH]nc(SCc3ccccc3)c1-2 [Example 6]

- IC50 [1, 5]: 38200 nM
- IC50 [2, 6]: 2290 nM
Structure (SMILES): NCCCn1nc2c(c1C(=O)O)CCc1cc(O)c(CCc3ccc(Cl)cc3)cc1-2 [Example 6]

- IC50 ([1]; read-out: MK-3 Avg. IC50): 135 nM
- IC50 ([2]; read-out: MK-2 Avg. IC50): 28 nM
Structure (SMILES): NCCCn1nc2c(c1C(=O)O)CCc1cnc(-c3cc(F)cc(F)c3)cc1-2 [Example 6]

- IC50 [1, 7]: 154000 nM
- IC50 [2, 8]: 2160 nM
Structure (SMILES): O=C(O)c1c2c(nn1CCCNC(c1ccccc1)(c1ccccc1)c1ccccc1)-c1nc(-c3cnc4ccccc4c3)ncc1CC2 [Example 6]
